Test results: PubChem BioAssay AID2061108 (Research group of Professor Matthew Todd, School of …, 2025)
Activity calls are given as the source filed them. How the calls were made is not given here.

Columns and labels:
Test in all cases: antibacterial and antifungal growth inhibition panel, profiling panel, Idler compounds, first plate, PMBN-permeabilized strains (AID 2061108)
Design in all cases: haemolysis: dose or concentration left out as unconfirmed
[1] = tested on: E. coli NCTC 12923 growth inhibition, 100 uM; details: E. coli NCTC 12923 growth inhibition, 100 µM; stronger effect = higher value
[2] = tested on: M. abscessus growth inhibition, 10 uM; details: S. aureus ATCC 9144 growth inhibition; measured here: M. abscessus; at 10 µM
[3] = tested on: S. aureus ATCC 9144 growth inhibition, 100 uM; details: S. aureus ATCC 9144 growth inhibition; at 100 µM; stronger effect = higher value
[4] = tested on: A. baumannii ATCC 17978 growth inhibition, 100 uM; details: S. aureus ATCC 9144 growth inhibition; measured here: A. baumannii ATCC 17978; at 100 µM; stronger effect = higher value
[5] = tested on: M. avium growth inhibition, 10 uM; details: M. avium growth inhibition, 10 µM
[6] = tested on: red blood cell haemolysis; details: stronger effect = higher value; dose or concentration not given here
[7] = tested on: C. albicans NCPF 3281 growth inhibition, 100 uM; details: S. aureus ATCC 9144 growth inhibition; measured here: C. albicans NCPF 3281; at 100 µM; stronger effect = higher value
[8] = tested on: A. baumannii ATCC 17978 + PMBN growth inhibition, 100 uM; details: A. baumannii plus PMBN growth inhibition, 100 µM; stronger effect = higher value
[9] = tested on: E. coli NCTC 12923 + PMBN growth inhibition, 100 uM; details: S. aureus ATCC 9144 growth inhibition; measured here: E. coli plus PMBN; at 100 µM; stronger effect = higher value

Structure (SMILES) | inhibition [1] [%] | inhibition [2] [%] | inhibition [3] | inhibition [4] [%] | inhibition [5] [%] | haemolysis [6] [%] | inhibition [7] [%] | inhibition [8] [%] | inhibition [9] [%]
CC1(C)C2CCC1(C)C(OCC(O)CNC1CCCCC1)C2 (configuration not stated) | 19.9 | -1.25 | 17% | 29.4 | -0.797 | 0.00104 | 100 | 79.1 | 100
COC(=O)c1ccc(C2CN(c3ccnc(S(=O)(=O)F)c3)C2)nc1 | 1.62 | -1.03 | 16.7% (inactive) | 0.357 | 0.0988 | -0.16 | -28.7 | 22.5 | 11.4
N#CC1(c2cccc(-c3cccc4c3CCOC4C(=O)O)c2)CC1 (configuration not stated) | -6.62 | 0.107 | -2.28% (inactive) | -4.34 | -1.43 | 0.0202 | -60.5 | 20.9 | -11.3
O=S(=O)(NC1(Cc2ccc(Cl)cc2Cl)CCC1)c1ccc(-c2nn[nH]n2)cc1 | 0.135 | -1.11 | 17% (inactive) | 22.7 | 0.393 | -0.271 | -103 | 65.8 | 22.2
COc1ccc(Nc2nc(-c3ccoc3)cs2)c(C)c1 | -15 | -1.05 | -12.5% (inactive) | -13.9 | 0.988 | 0.164 | -127 | 16.4 | -20.1
COc1ccc2c(c1)nc(-c1ccc[nH]1)c1[nH]ccc12 | 43.8 | 0.154 | 102% | 34.2 | 1.82 | 0.0477 | 101 | 101 | 100
O=C(N/N=C/c1ccncc1O)c1ccncc1 | 18.6 | -0.377 | 22% (inactive) | 12.6 | -1.89 | -0.102 | 79.2 | 22.8 | 1.36
CC(C)c1conc1CNc1ccnc(S(=O)(=O)F)c1 | -1.22 | -1.22 | 16.8% (inactive) | -0.119 | 0.196 | -0.292 | 11.6 | 13 | -0.37
Cc1cc(NC(=O)c2ccc(F)c(C(C)(C)C#N)c2)nn1C | -2.97 | 0.104 | 1.75% (inactive) | -0.843 | -0.0495 | 0.0361 | -51.4 | 22.3 | -1.71
Cc1ccc(N2CN(CC(=O)Nc3ccccc3Cl)S(=O)(=O)c3cccnc32)cc1 | -45.3 | 0.131 | -17.7% (inactive) | -6.75 | -1.53 | 0.453 | -124 | 4.43 | -25.9
CC(=O)NCCC(=O)NNC(=O)c1cc(-c2ccccn2)nc2ccccc12 | -5.54 | -0.278 | -6.67% (inactive) | -4.58 | -0.099 | 0.542 | -14.4 | 4.14 | -9.76
N#Cc1c(NC[C@H]2CCCN2)nc2ccccc2c1C(F)(F)F | 12.8 | -1.13 | 99.7% | 9.76 | -0.31 | 0.41 | -78.9 | 53.6 | 17.7
O=C(CSc1nc(=O)[nH]c2c1CCC2)c1ccc(Cl)cc1 | -22 | -0.381 | -14.2% (inactive) | 0 | 0.488 | 0.151 | -110 | 10.9 | -20
